US20260327191A1, “GSK3a INHIBITORS AND METHODS OF USE THEREOF” (Blueprint Medicines Corporation, priority 2023, published 2026)
Structures can show the parent of a compound that is named as a salt.

Columns and labels:
human GSK3α = biological target: T1, human GSK3α (Homo sapiens, UniProt P49840); experiment: In vitro enzymatic activity assay, GSK3α; type: biochemical; settings: 1.0 mM ATP, 1.0 μM peptide substrate, 120 min, 25° C, read-out: Enzyme GSK3α (IC50)
T1 construct: Full length human GSK3α or GSK3B expressed as N-terminal GST fusion proteins; GST (N); purchased Carna Biosciences (Japan); host or cells: baculovirus host
T1 sequence (P49840 whole entry, the tested form may be a part): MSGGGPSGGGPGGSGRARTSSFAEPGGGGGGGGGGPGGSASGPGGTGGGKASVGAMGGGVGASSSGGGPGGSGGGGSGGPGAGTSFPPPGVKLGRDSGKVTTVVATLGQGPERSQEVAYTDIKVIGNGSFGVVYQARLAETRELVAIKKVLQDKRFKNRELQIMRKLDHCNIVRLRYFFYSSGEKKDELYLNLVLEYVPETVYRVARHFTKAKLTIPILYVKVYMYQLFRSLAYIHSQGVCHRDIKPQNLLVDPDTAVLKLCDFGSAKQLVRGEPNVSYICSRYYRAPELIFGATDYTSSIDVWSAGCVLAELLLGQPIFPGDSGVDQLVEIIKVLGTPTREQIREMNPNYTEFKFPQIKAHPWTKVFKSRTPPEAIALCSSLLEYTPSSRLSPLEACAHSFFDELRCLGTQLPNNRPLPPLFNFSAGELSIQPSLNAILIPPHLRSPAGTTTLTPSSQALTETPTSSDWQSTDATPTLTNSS

GSK3A = biological target: T2, GSK3A (Homo sapiens, UniProt P49840); experiment: NanoBRET cellular target engagement assay, Nanoluc-GSK3A in HEK293 cells; type: cell-based; settings: NanoBRET GSK3α IC50, HEK293 cells, tracer K-8, 2 hours, 37° C
T2 construct: expressed in transfected cells
T2 sequence (P49840 whole entry): as the sequence (P49840 whole entry, the tested form may be a part) above

GSK3B [1] = biological target: T3, GSK3B (Homo sapiens, UniProt P49841); experiment: NanoBRET cellular target engagement assay, Nanoluc-GSK3B in HEK293 cells; type: cell-based; set-up: expressed in transfected cells; settings: NanoBRET GSK3β IC50, HEK293 cells, tracer K-8, 2 hours, 37° C
T3 sequence (P49841 whole entry, the tested form may be a part): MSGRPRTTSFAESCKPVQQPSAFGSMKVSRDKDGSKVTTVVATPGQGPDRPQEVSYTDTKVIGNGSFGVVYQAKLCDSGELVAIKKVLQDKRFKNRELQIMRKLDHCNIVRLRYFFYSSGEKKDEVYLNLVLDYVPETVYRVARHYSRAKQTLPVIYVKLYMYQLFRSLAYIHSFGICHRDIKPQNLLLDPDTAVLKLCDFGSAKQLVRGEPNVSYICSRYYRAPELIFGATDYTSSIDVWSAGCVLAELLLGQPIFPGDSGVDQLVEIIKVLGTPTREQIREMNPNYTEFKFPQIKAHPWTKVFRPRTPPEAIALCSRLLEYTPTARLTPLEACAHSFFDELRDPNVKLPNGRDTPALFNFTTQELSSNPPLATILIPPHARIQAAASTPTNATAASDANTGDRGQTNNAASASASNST

GSK3B [2] = biological target: T3, GSK3B; experiment: In vitro enzymatic activity assay, GSK3β; type: biochemical; set-up: Full length human GSK3α or GSK3B expressed as N-terminal GST fusion proteins; GST (N); purchased Carna Biosciences (Japan); host or cells: baculovirus host; settings: 1.0 mM ATP, 1.0 μM peptide substrate, 120 min, 25° C, read-out: Enzyme GSK3β (IC50)

Structure (SMILES) | IC50 (human GSK3α) [µM] | IC50 (GSK3A) [µM] | IC50 (GSK3B [1]) [µM] | IC50 (GSK3B [2]) [µM]
Cc1cc(OC(F)(F)F)cc(C)c1-n1cnc(N)c(C(=O)Nc2cncc([C@H]3CCCCN3)c2)c1=O [Example 110, (R)-4-amino-1-(2,6-dimethyl-4-(trifluoromethoxy)phenyl)-6-oxo-N-(5-(piperidin-2-yl)pyridin-3-yl)-1,6-dihydropyrimidine-5-carboxamide] | 0.0099 | 0.0037 | 0.335 | 0.568
Nc1ncn(-c2c(Cl)cc(C(F)(F)F)cc2Cl)c(=O)c1C(=O)Nc1cncc([C@@H]2CCCN2)c1 [Example 118, (S)-4-amino-1-(2,6-dichloro-4-(trifluoromethyl)phenyl)-6-oxo-N-(5-(pyrrolidin-2-yl)pyridin-3-yl)-1,6-dihydropyrimidine-5-carboxamide] | 0.0112 | 0.0094 | 0.566 | 0.45
NCc1cncc(NC(=O)c2c(N)ncn(-c3c(Cl)cc(C(F)(F)F)cc3Cl)c2=O)c1 [Example 120, 4-amino-N-(5-(aminomethyl)pyridin-3-yl)-1-(2,6-dichloro-4-(trifluoromethyl)phenyl)-6-oxo-1,6-dihydropyrimidine-5-carboxamide] | 0.0094 | 0.0044 | 0.274 | 0.442
CN(C)c1cc(Cl)c(-n2cnc(N)c(C(=O)Nc3cncc([C@@H]4CCCCN4)c3)c2=O)c(Cl)c1 [Example 123, (S)-4-amino-1-(2,6-dichloro-4-(dimethylamino)phenyl)-6-oxo-N-(5-(piperidin-2-yl)pyridin-3-yl)-1,6-dihydropyrimidine-5-carboxamide] | 0.0048 | 0.0033 | 0.203 | 0.266
CCCOc1cc(C)c(-n2cnc(N)c(C(=O)Nc3cncc(CNC)c3)c2=O)c(C)c1 [Example 127, 4-amino-1-(2,6-dimethyl-4-propoxyphenyl)-N-(5-((methylamino)methyl)pyridin-3-yl)-6-oxo-1,6-dihydropyrimidine-5-carboxamide] | 0.0186 | 0.0096 | 0.65 | 0.767
CCOCc1cc(C)c(-n2cnc(N)c(C(=O)Nc3cncc([C@H]4CCCCN4)c3)c2=O)c(C)c1 [Example 131, (R)-4-amino-1-(4-(ethoxymethyl)-2,6-dimethylphenyl)-6-oxo-N-(5-(piperidin-2-yl)pyridin-3-yl)-1,6-dihydropyrimidine-5-carboxamide] | 0.0049 | 0.0023 | 0.159 | 0.202
Cc1cc(C)c(-n2cnc(N)c(C(=O)Nc3cncc([C@H]4CCCCN4)c3)c2=O)c(C)c1 [Example 145, (R)-4-amino-1-mesityl-6-oxo-N-(5-(piperidin-2-yl)pyridin-3-yl)-1,6-dihydropyrimidine-5-carboxamide] | 0.003 | 0.001 | 0.0962 | 0.129
Nc1ncn(-c2c(Cl)cc(F)cc2Cl)c(=O)c1C(=O)Nc1cncc([C@@H]2CCCN2)c1 [Example 149, (S)-4-amino-1-(2,6-dichloro-4-fluorophenyl)-6-oxo-N-(5-(pyrrolidin-2-yl)pyridin-3-yl)-1,6-dihydropyrimidine-5-carboxamide] | 0.0134 | 0.0086 | 0.519 | 0.552
Nc1ncn(-c2c(Cl)cncc2Cl)c(=O)c1C(=O)Nc1cncc([C@H]2CCCCN2)c1 [Example 152, (R)-4-amino-1-(3,5-dichloropyridin-4-yl)-6-oxo-N-(5-(piperidin-2-yl)pyridin-3-yl)-1,6-dihydropyrimidine-5-carboxamide] | 0.0027 | 0.0024 | 0.174 | 0.12
Cc1cc(CS(C)(=O)=O)cc(C)c1-n1cnc(N)c(C(=O)Nc2cncc([C@H]3CCCCN3)c2)c1=O [Example 158, (R)-4-amino-1-(2,6-dimethyl-4-((methylsulfonyl)methyl)phenyl)-6-oxo-N-(5-(piperidin-2-yl)pyridin-3-yl)-1,6-dihydropyrimidine-5-carboxamide] | 0.0093 | 0.0373 | 0.532 | 0.355

Continued by falling IC50 (human GSK3α), values first:

IC50 (human GSK3α) [µM] | IC50 (GSK3A) [µM] | IC50 (GSK3B [1]) [µM] | IC50 (GSK3B [2]) [µM] | Structure (SMILES)
0.0349 | 0.0081 | 0.957 | 1.25 | CCNCc1cncc(NC(=O)c2c(N)ncn(-c3c(C)cc(CC(F)F)cc3C)c2=O)c1 [Example 156, 4-amino-1-(4-(2,2-difluoroethyl)-2,6-dimethylphenyl)-N-(5-((ethylamino)methyl)pyridin-3-yl)-6-oxo-1,6-dihydropyrimidine-5-carboxamide]
0.0325 | 0.0113 | 1.16 | 1.32 | COCc1cc(C)c(-n2cnc(N)c(C(=O)Nc3cncc(C4(N)CCC4)c3)c2=O)c(C)c1 [Example 157, 4-amino-N-(5-(1-aminocyclobutyl)pyridin-3-yl)-1-(4-(methoxymethyl)-2,6-dimethylphenyl)-6-oxo-1,6-dihydropyrimidine-5-carboxamide]
0.0097 | 0.0061 | 0.35 | 0.508 | CCOc1cc(Cl)c(-n2cnc(N)c(C(=O)Nc3cncc([C@@H]4CCCCN4)c3)c2=O)c(Cl)c1 [Example 133, (S)-4-amino-1-(2,6-dichloro-4-ethoxyphenyl)-6-oxo-N-(5-(piperidin-2-yl)pyridin-3-yl)-1,6-dihydropyrimidine-5-carboxamide]
0.0081 | 0.0081 | 0.502 | 0.414 | Nc1ncn(-c2c(Cl)cc(C(F)(F)F)cc2Cl)c(=O)c1C(=O)Nc1cncc([C@@H]2CCCCN2)c1 [Example 119, (S)-4-amino-1-(2,6-dichloro-4-(trifluoromethyl)phenyl)-6-oxo-N-(5-(piperidin-2-yl)pyridin-3-yl)-1,6-dihydropyrimidine-5-carboxamide]
0.0072 | 0.003 | 0.287 | 0.379 | Cc1cc(F)cc(C)c1-n1cnc(N)c(C(=O)Nc2cncc([C@H]3CCCCN3)c2)c1=O [Example 161, (R)-4-amino-1-(4-fluoro-2,6-dimethylphenyl)-6-oxo-N-(5-(piperidin-2-yl)pyridin-3-yl)-1,6-dihydropyrimidine-5-carboxamide trifluoroacetate]
0.007 | 0.0078 | 0.404 | 0.393 | CC(C)Oc1cc(Cl)c(-n2cnc(N)c(C(=O)Nc3cncc([C@@H]4CCCCN4)c3)c2=O)c(Cl)c1 [Example 124, (S)-4-amino-1-(2,6-dichloro-4-isopropoxyphenyl)-6-oxo-N-(5-(piperidin-2-yl)pyridin-3-yl)-1,6-dihydropyrimidine-5-carboxamide]
0.0056 | 0.0054 | 0.301 | 0.218 | Cc1cc(C(F)(F)F)cc(C)c1-n1cnc(N)c(C(=O)Nc2cncc([C@H]3CCCCN3)c2)c1=S [Example 162, (R)-4-amino-1-(2,6-dimethyl-4-(trifluoromethyl)phenyl)-N-(5-(piperidin-2-yl)pyridin-3-yl)-6-thioxo-1,6-dihydropyrimidine-5-carboxamide trifluoroacetate]
0.0049 | 0.0027 | 0.163 | 0.296 | CCCOc1cc(C)c(-n2cnc(N)c(C(=O)Nc3cncc([C@H]4CCCCN4)c3)c2=O)c(C)c1 [Example 125, (R)-4-amino-1-(2,6-dimethyl-4-propoxyphenyl)-6-oxo-N-(5-(piperidin-2-yl)pyridin-3-yl)-1,6-dihydropyrimidine-5-carboxamide]
